The values that follow come from patent US20110124703A1, “MOLECULES COMPRISING A BIS(HETEROARYL)MALEIMIDE BACKBONE, AND USE THEREOF IN THE INHIBITION OF DDE/DDD ENZYMES” (priority 2008, published 2011).

Assay [1] has as its target T1, MOS1 transposase (MBP-MOS1) (Drosophila mauritiana, UniProt Q7JQ07).
T1 construct: made in house
Kind of assay: In vitro transposition test. The note with it: 80 μM compound; for Transposition frequencies: mean of at least five experiments; for Inhibition factors: ratio of transposition frequency with DMSO to that with compound. In kind it is biochemical. The protocol: The in vitro transposition reactions were carried out using pBC-3T3 both as the donor DNA and as the target, as was carried out previously for transposition tests in bacteria (16). The transposition reaction mixtures contained 10 mM of Tris-HCl (pH 9), 50 mM of NaCl, 0.5 mM of dithiothreitol, 20 mM of MgCl2, 0.5 mM of EDTA, 100 ng of BSA, 80 nM of MBP-MOS1 and 600 ng of supercoiled pBC-3T3 in a volume of 20 μl. Inhibitors (final concentration 80 μM) or DMSO were added to the reaction mixtures before the transposase. The reactions were carried out freely for 30 min at 30° C. then 10 μl of the stop solution (0.4% SDS, 0.4 μg/μl proteinase K) were added and the reaction mixtures were incubated at 37° C. for an additional 30 min, then at 65° C. for 10 min. The products were extracted with phenol-chloroform and precipitated in ethanol with 1 μg of yeast tRNA using conventional techniques. 10% of the reaction mixture was co-transformed with 0.01 ng of pBS-SK(−), used as a positive control for transformation (Stratagene), in 45 μl of electrocompetent Escherichia coli JM109 cells (2 mm cell, 1.5 kV in a MicroPulser™ from BioRad). The bacteria were cultivated at 37° C. for 1 hour in SOC medium. Appropriate dilutions of each reaction were spread on LB-ampicillin gelose (100 μg/ml) to evaluate the transformation efficacy and on LB-tetracyclin gelose (12.5 μg/ml) and LB-chloramphenicol gelose (80 μg/ml) in order to evaluate the frequency of transposition. The frequency of transposition is the number of Tet® colonies divided by the number of Chloram® colonies. The transformation efficacy was monitored from the number of Amp® colonies. The effect of the various compounds was expressed by calculating an inhibition factor (IF) such that IF=the frequency of transposition of the control (in DMSO) divided by the frequency of transposition obtained with the compound.
The transposition test was carried out using a purified MOS1 protein fused with the MBP and the pBC-3T3 plasmid carrying a pseudo-Mos1 transposon. In this test, pBC-3T3 was used as the pseudo-Mos1 donor, or as the target for integration of the transposon (16). […] The concentration of drugs used for the initial screening was 80 μM.

For the next assay, the target named is T2, MOS1-ITR complexes (Drosophila mauritiana, UniProt Q7JQ07).
T2 construct: made in house
T2 sequence (Q7JQ07 whole entry, one chain of several): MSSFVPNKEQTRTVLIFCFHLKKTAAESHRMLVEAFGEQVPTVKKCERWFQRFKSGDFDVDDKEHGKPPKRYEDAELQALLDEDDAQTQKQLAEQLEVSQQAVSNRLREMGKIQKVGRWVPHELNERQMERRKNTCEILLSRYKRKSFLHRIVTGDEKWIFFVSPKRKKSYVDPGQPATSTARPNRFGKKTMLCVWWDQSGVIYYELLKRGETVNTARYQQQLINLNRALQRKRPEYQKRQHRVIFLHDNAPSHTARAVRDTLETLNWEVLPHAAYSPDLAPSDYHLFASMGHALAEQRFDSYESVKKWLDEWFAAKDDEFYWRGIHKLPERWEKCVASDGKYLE
Kind of assay: Electrophoretic mobility shift test (EMSA), assembly of MOS1-ITR complexes. In kind it is binding. Details: key to Assembly of complexes: +: complexes observed; −: absence of complexes; +/: traces of SEC1. The note with it: for IC50: MOS1-ITR bond. The protocol: The ITR30 was prepared and labeled as described above (8) with certain minor modifications: after labelling, the DNA was purified further on a native polyacrylamide gel. The binding reactions were carried out in 50 mM of NaCl, 0.5 mM of DTT, 10 mM of Tris (pH 9), 5% of glycerol and 100 ng of BSA. Each 20 μl reaction contained 0.2 pmol of ITR30 labelled with ^32P, […] of purified MBP-MOS1, 5 mM of EDTA, and 1 μl of the test compound (final concentration 400 μM) or DMSO. The mixtures were incubated at 30° C. for two hours. The complexes were separated using discontinuous native polyacrylamide gels with 4% to 6% of TBE 0.25× (acrylamide/bisacrylamide 30:0.93) containing 5% of glycerol. The gels were subjected to 200 V for 3 hours then autoradiographed.
The capacity of the ten molecules to inhibit the appearance of complexes formed in vitro between MOS1 and ITR 3′ (8) was tested using the gel mobility shift technique (EMSA). MOS1-ITR complexes were formed with a radiolabelled ITR 3′ (ITR30) in the presence of a 400 μM concentration of molecule. This concentration was at least 2.5 times higher than the highest IC50 value measured for the ten compounds.
In general terms: In EMSA bound probe runs differently from free probe, usually more slowly.

The next assay concerns the target T3, HIV-1 integrase (Human immunodeficiency virus type 1 group M subtype B, UniProt P04585).
T3 construct: made in house
Briefly: 3′ maturation and HIV-1 strand transfer tests. In kind it is biochemical. The protocol:
HIV-1 integrase was purified as described in (32). 200 nM of HIV-1 integrase was incubated in the presence of 6.25 nM of radiolabelled oligonucleotide duplex imitating the end of the LTR U5 in a buffer containing 20 mM of HEPES (pH 7.5), 10 mM of NaCl, 4 mM of DTT, 7.5 mM of MgCl2, 10% of DMSO and various concentrations of drugs. The reaction was carried out for 2 hours at 37° C. and the products were separated on an 18% acrylamide urea gel. The gel was scanned using a phosphorimager and analyzed using Image Quant (Molecular Dynamics) software. Each experiment was carried out in duplicate.
To verify whether the novel group of inhibitors (compounds 1 to 4) is also susceptible of blocking HIV-1 integrase, the activity of compound 4 was tested against the 3′ maturation and strand transfer activities of HIV-1 integrase. The percentage inhibition measured in the two independent experiments were traced as a function of the concentration of compound 4 (FIG. 10). […] It was also an excellent inhibitor of HIV-1 integrase. […] In consequence, MOS1 can be considered as a novel substitute for the identification of inhibitors of HIV-1 integrase.

Assay [2] addresses T1, MOS1 transposase (MBP-MOS1). Kind of assay: In vitro excision test. In kind it is biochemical. The protocol:
These tests were carried out under the same conditions as for the in vitro transposition tests, with the exception of the fact that the incubation was carried out at 37° C. instead of 30° C. In order to determine the IC50, a range of concentrations of the compound from 1000 to 0.8 μM was used as indicated in the text. After incubation, the reaction was interrupted by adding 2 μl of 10× loading buffer and the products were loaded directly onto a 0.8% TAE 1×-agarose gel containing ethidium bromide. The quantity of backbone liberated was evaluated using the GeneSnap system (SynGene). The percentage inhibition of excision was plotted as a function of the concentration of the compound. The experimental data were adjusted on a sigmoid dose-response curve using Prism software. Each experiment was repeated at least two times.
For a better characterization of the inhibiting activity of these ten compounds and their action mechanisms on the transposition of Mos1, the capacity of the chemical compounds to inhibit excision of the transposon was tested in vitro, using the pBC-3T3 transposon as a donor plasmid. MOS1 triggers excision of the transposon from a donor plasmid, generating two linear DNA fragments, the transposon (1.2 kb) and the plasmid backbone (3.4 kb). After excision, the transposon can be re-inserted in a target. The excision activity of the drug was measured by quantifying the plasmid backbone as it is a final product in the reaction. In the absence of a drug, the transposase released the transposon from the donor plasmid.
In order to determine the concentration of drug necessary to inhibit 50% of the reaction (IC50), the inhibition percentages measured from two independent experiments were plotted as a function of the concentration of drug (FIG. 3b). Similar experiments were carried out with the nine other chemical compounds and the corresponding IC50 values are shown in Table III.

Structures are written as SMILES. Where two headings read alike, the source gives them in different places.

T1 sequence (Q7JQ07 whole entry): as the sequence (Q7JQ07 whole entry, one chain of several) above

For `O=C(O)c1ccc(C2=C(c3ccc(C(=O)O)o3)C(=O)N(c3ccc(O)cc3)C2=O)o1` [Compound 2], in assay [1], the Transposition frequencies was 1.2 × 10^−6 and the Inhibition factors stood at 33. For the same compound, on MOS1-ITR complexes (400 μM compound), the Assembly of complexes entry is recorded as “−” and the “MOS1-ITR complexes in the presence of compound” value (shortened to “MOS1-ITR complexes … of compound”) is “completely destabilized”. Moreover, on MOS1-ITR complexes, the IC50 amounted to 15 µM.
For `CCOC(=O)C(Cc1ccccc1)N1C(=O)C(c2ccc(C(=O)O)o2)=C(c2ccc(C(=O)O)o2)C1=O` (stereo not drawn) [Compound 3], in that order: 4.01 × 10^−6, 100, “−”, “completely destabilized” and 30 µM.
In the case of `O=C/C=C/c1ccc(C2=C(c3ccc(/C=C/C=O)o3)C(=O)N(Cc3ccccc3)C2=O)o1` [Compound 4], the Transposition frequencies in assay [1] was 5.37 × 10^−6. In addition, in assay [1], the Inhibition factors came to 75. For the same compound, the “times more active against strand transfer activity than 3′ maturation” value at HIV-1 integrase worked out at 10 times. Moreover, the IC50 on HIV-1 integrase (read-out: IC50 3′ maturation) was 70 µM; on HIV-1 integrase (read-out: IC50 strand transfer activity), 7 µM; at MOS1-ITR complexes it was 12 µM. Further, at MOS1-ITR complexes (400 μM compound), the Assembly of complexes entry is listed as “−”. In addition, on MOS1-ITR complexes (400 μM compound), the “MOS1-ITR complexes … of compound” value was “completely destabilized”.
Regarding `COc1ccc(C(c2c(O)c3ccccc3oc2=O)c2c(O)c3ccccc3oc2=O)cc1CSc1ccccn1` [Compound 7, reference compound], in assay [1], the Transposition frequencies is 4.85 × 10^−6 and the Inhibition factors was 82.5. For the same compound, at MOS1-ITR complexes (400 μM compound), the Assembly of complexes result is “−” and the “MOS1-ITR complexes … of compound” value is given as “completely destabilized”.
Consider `COc1cccc(OCCOc2cccc(CC3SC(=S)NC3=O)c2)c1` (stereo not drawn) [Compound 8, reference compound], for which, in assay [1], the Transposition frequencies is on record as 5.04 × 10^−6 and the Inhibition factors was 79. For the same compound, on MOS1-ITR complexes (400 μM compound), the Assembly of complexes entry is given as “−” and the “MOS1-ITR complexes … of compound” value is given as “completely destabilized”.
As to `O=C(Nc1ccccc1C(=O)O)c1cccc(NC(=O)C(c2ccccc2)c2ccccc2)c1` [Compound 9, reference compound], in assay [1], the Transposition frequencies is given as 1.64 × 10^−5 and the Inhibition factors is 25. The compound further returned an IC50 in assay [2] of 150 µM. Also, the “excision of the transposon” value in assay [2] (highest concentration of the drug (1 mM)) is “completely suppressed”. The “inhibition of MOS1-ITR complexes” value on MOS1-ITR complexes (400 μM compound) came out at 90%.
For `O=C(O)C(Cc1ccccc1)N1C(=O)C(=CC=Cc2ccccc2)SC1=S` (stereo not drawn) [Compound 10, reference compound], in assay [1], the Transposition frequencies is 2.76 × 10^−6 and the Inhibition factors is 145. The compound also displayed an IC50 in assay [2] of 35 µM. Also, on MOS1-ITR complexes (400 μM compound), the Assembly of complexes entry is listed as “−” and the “MOS1-ITR complexes … of compound” value was “completely destabilized”.
